One assay relates to E11.5 AGM cells. The assay can be described thus: RNA-sequencing / whole transcriptome analyses of treated E11.5 AGM cells. The settings on record: Venn comparison of up-regulated genes, endothelial-to-HSC transition. The class given is cell-based, mouse. As to the method:
RNA-sequencing analyses were performed to measure gene expression patterns in mouse AGM treated with cyclic strain or pharmacological modulators. Using computational algorithms, hierarchical clustering was performed of differentially expressed genes as well as measured their overrepresented biological processes and pathways. Gene expression clusters of differentially expressed genes were analyzed and their mean expression level across cell populations compared. Next, Venn comparison of up- and down-genes was constructed to analyze candidate(s) important for cyclic strain- or pharmacological modulator(s)-mediated the endothelial-to-HSC transition. Furthermore, Dnmt3b and Dnmt3a protein expressions were analyzed in nuclear fractions of mouse AGM cells using EPIQUIK methyltransferase assay kits. Data are presented as mean±s.d. unless otherwise noted. Statistical analyses were performed by paired or un-paired Student's t-tests. […]
Total RNA from E11.5 mouse AGM explant cultures was isolated (control, stretch, Yoda1 and 4αPDD conditions) with the RNAEASY MiniKit (QIAGEN). […] We mapped our sequenced read fragments to the mouse reference genome GRCm38 (ENSEMBL release 69) using the Genomic Short-Read Nucleotide Alignment program (version 2012 Jul. 20). […] Gene expression clusters of differentially expressed genes were analyzed and their mean expression level across cell populations compared. […]

The subject of the next assay is Dnmt3b. Description: Dnmt3b protein level in nuclear fractions of E11.5 AGM cells (EPIQUIK assay kit). The class given is cell-based, mouse. The settings on record: nuclear fractions of treated E11.5 AGM cells. On the procedure: RNA-sequencing analyses were performed to measure gene expression patterns in mouse AGM treated with cyclic strain or pharmacological modulators. Using computational algorithms, hierarchical clustering was performed of differentially expressed genes as well as measured their overrepresented biological processes and pathways. Gene expression clusters of differentially expressed genes were analyzed and their mean expression level across cell populations compared. Next, Venn comparison of up- and down-genes was constructed to analyze candidate(s) important for cyclic strain- or pharmacological modulator(s)-mediated the endothelial-to-HSC transition. Furthermore, Dnmt3b and Dnmt3a protein expressions were analyzed in nuclear fractions of mouse AGM cells using EPIQUIK methyltransferase assay kits. Data are presented as mean±s.d. unless otherwise noted. Statistical analyses were performed by paired or un-paired Student's t-tests. Significance was set at P<0.05.
Nuclear extracts from AGM explants were harvested using an EPIQUIK Nuclear Extraction Kit (Epigentek Group Inc.). Dnmt3b and Dnmt3a protein levels were analyzed using a colorimetric EPIQUIK methyltransferase Assay Kit (Epigentek Group Inc.), according to the manufacturer's instructions. Concentration of Dnmt3b and Dnmt3a is relative to 1 μg of nuclear extract proteins.

The subject of assay [1] is human iPSC-derived HE cells. Description: Endothelial-to-hematopoietic transition in human iPSC-derived HE cells (FACS, CD34/CD45). The class given is cell-based. Conditions: Yoda1 between 6.25 and 100 μM. On the procedure:
Embryoid body and hemogenic endothelium differentiation was performed as described in (Sugimura et al. 2017; Ditadi et al. 2015). Briefly, hiPSC colonies were dissociated with 0.05% trypsin for 5 min at 37° C., washed with PBS+2% FBS, and resuspended in STEMPRO-34 medium (Invitrogen, 10639-011) supplemented with L-glutamine (2 mM), penicillin/streptomycin (10 ng/ml), ascorbic acid (1 mM), human holo-Transferrin (150 μg/ml, Sigma T0665), monothioglycerol (MTG, 0.4 mM), BMP4 (10 ng/ml), and Y-27632 (10 μM). Five million cells were seeded into 10 cm dishes (Ezsphere, Asahi Glass) for the spheroid formation. On Day 1, bFGF (5 ng/ml) and BMP4 (10 ng/ml) was added to the medium. On Day 2, the media was changed with the STEMPRO-34 supplemented with SB431542 (6 μM), CHIR99021 (3 μM), bFGF (5 ng/ml), and BMP4 (10 ng/ml). On Day 3, the medium was replaced with STEMPRO-34 supplemented with VEGF (15 ng/ml) and bFGF (10 ng/ml). On day 6, the medium was changed to STEMPRO-34 supplemented with bFGF (5 ng/ml), VEGF (15 ng/ml), interleukin (IL)-6 (10 ng/ml), IGF-1 (25 ng/ml), IL-11 (5 ng/ml), SCF (50 ng/ml) and EPO (2IU). The cells were maintained in a 5% CO2, 5% O2 and 95% humidity incubator. […]

Take `Clc1cccc(Cl)c1CSc1nnc(-c2cnccn2)s1` [Yoda1, 2-[5-[[(2,6-Dichlorophenyl)methyl]thio]-1,3,4-thiadiazol-2-yl]-pyrazine]: in the assay on E11.5 AGM cells, the Dnmt3b transcript expression result is listed as “specifically stimulate” and the Gimap6 transcript expression entry is reported as “specifically stimulate”. Moreover, the “Dnmt3b protein expression level” value in the assay on Dnmt3b is “specifically stimulates Dnmt3b protein expression levels”. Further, in assay [1], the “dose dependence of the endothelial-to-hematopoietic transition” value is reported as “dose dependent”. The endothelial-to-hematopoietic transition result in assay [1] (7 days, data not shown) is reported as “induced the endothelial-to-hematopoietic transition”.
